Assay results from patent US20260242391A1 (priority 2023, published 2026).
pEC50, pIC50: −log10 of the molar value.

What was measured:
HL-60 = HL-60 differentiation potency; format: cell-based; conditions: Homo sapiens
in vitro = conditions: human

SMILES | pEC50 (HL-60) | pIC50 (in vitro) | pIC50 (in vitro; HL-60 cells)
C[C@H]1[C@@H](OCC(=O)N[C@H](C(=O)O)C(C)(C)C)O[C@@H]2O[C@@]3(C)CC[C@H]4[C@H](C)CC[C@@H]1[C@@]24OO3 [Compound 188, (S)-3,3-dimethyl-2-(2-(((3R,5aS,6R, 8aS,9R,10S,12R, 12aR)-3,6,9-trimethyldeca-hydro-12H-3,12-epoxy[1,2]dioxepino[4,3-i]isochromen-10-yl)oxy)acetamido) butanoic acid] | 5.30 | < 4.70 | –
C[C@H]1[C@@H](O[C@H]2CC[C@@H](C(=O)N[C@H](C(=O)O)c3ccccc3)CC2)O[C@@H]2O[C@@]3(C)CC[C@H]4[C@H](C)CC[C@@H]1[C@@]24OO3 [Compound 189, (S)-2-phenyl-2-((1R,4R)-4-(((3R,5aS,6R,8aS, 9R,10S,12R, 12aR)-3,6,9-trimethyldeca-hydro-12H-3,12-epoxy[1,2]dioxepino[4,3-i]isochromen-10-yl)oxy)cyclo-hexane-1-carboxamido) acetic acid] | 5.72 | 4.82 | –
C[C@H]1[C@@H](Oc2ccc(C(=O)N3C[C@H]4[C@@H]([C@H]3C(=O)O)C4(C)C)cc2)O[C@@H]2O[C@@]3(C)CC[C@H]4[C@H](C)CC[C@@H]1[C@@]24OO3 [Compound 190, (1R,2S,5S)-6,6-dimethyl-3-(4-(((3R,5aS,6R,8aS, 9R,10S,12R, 12aR)-3,6,9-trimethyldeca-hydro-12H-3,12-epoxy[1,2]dioxepino[4,3-i]isochromen-10-yl)oxy)benzoyl)-3-azabicyclo[3.1.0] hexane-2-carboxylic acid] | 7.10 | 6.48 | –
C[C@H]1[C@@H](OCC(=O)N2C[C@@H]3CCC[C@@H]3[C@H]2C(=O)O)O[C@@H]2O[C@@]3(C)CC[C@H]4[C@H](C)CC[C@@H]1[C@@]24OO3 [Compound 191, (1S,3aR,6aS)-2-(2-(((3R,5aS,6R, 8aS,9R,10S,12R, 12aR)-3,6,9-trimethyldeca-hydro-12H-3,12-epoxy[1,2]dioxepino[4,3-i]isochromen-10-yl)oxy)acetyl) octahydrocyclo-penta[c]pyrrole-1-carboxlic acid] | 5.01 | < 4.70 | –
C[C@H]1[C@@H](Oc2ccc(C3CC3C(=O)O)cc2)O[C@@H]2O[C@@]3(C)CC[C@H]4[C@H](C)CC[C@@H]1[C@@]24OO3 (stereo partly drawn) [Compound 192, 2-(4-(((3R,5aS,6R,8aS, 9R,10S,12R, 12aR)-3,6,9-trimethyldeca-hydro-12H-3,12-epoxy[1,2]dioxepino[4,3-i]isochromen-10-yl)oxy)phenyl) cyclopropane-1-carboxylic acid] | 7.17 | 5.46 | –
CO[C@]1(CO[C@H]2O[C@@H]3O[C@@]4(C)CC[C@H]5[C@H](C)CC[C@@H]([C@H]2C)[C@@]35OO4)CC[C@H](C(=O)O)CC1 [Compound 193, (1R,4s)-4-methoxy-4-((((3R,5aS,6R,8aS, 9R,10S,12R, 12aR)-3,6,9-trimethyldeca-hydro-12H-3,12-epoxy[1,2]dioxepino[4,3-i]isochromen-10-yl)oxy)methyl) cyclohexane-1-carboxylic acid] | 5.15 | < 4.70 | –
C[C@H]1[C@@H](Oc2ccc([C@H](N)C(=O)O)cc2)O[C@@H]2O[C@@]3(C)CC[C@H]4[C@H](C)CC[C@@H]1[C@@]24OO3 [Compound 194, (S)-2-amino-2-(4-(((3R,5aS,6R,8aS, 9R,10S,12R, 12aR)-3,6,9-trimethyldeca-hydro-12H-3,12-epoxy[1,2]dioxepino[4,3-i]isochromen-10-yl)oxy)phenyl) acetic acid] | 4.75 | < 4.70 | –
C[C@H]1[C@H](OCc2ccc(C(=O)O)cc2C(F)(F)F)O[C@@H]2O[C@@]3(C)CC[C@H]4[C@H](C)CC[C@@H]1[C@@]24OO3 [Compound 195, 3-(trifluoromethyl)-4-((((3R,5aS,6R,8aS, 9R,10R,12R, 12aR)-3,6,9-trimethyldeca-hydro-12H-3,12-epoxy[1,2]dioxepino[4,3-i]isochromen-10-yl)oxy)methyl) benzoic acid] | 6.81 | 5.00 | –
C[C@@H]1CC[C@H]2[C@@H](C)[C@](OCc3ccc(C(=O)O)cc3Cl)(C(F)(F)F)O[C@@H]3O[C@@]4(C)CC[C@@H]1[C@]32OO4 [Compound 196] | 7.99 | 7.52 | –
C[C@@H]1CC[C@H]2[C@@H](C)C(OCc3ccc(C(=O)O)cc3C(F)(F)F)O[C@@H]3O[C@@]4(C)CC[C@@H]1[C@]32OO4 (stereo partly drawn) [Compound 197, 3-(trifluoromethyl)-4-((((3R,5aS,6R,8aS, 9R,12R, 12aR)-3,6,9-trimethyldeca-hydro-12H-3,12-epoxy[1,2]dioxepino[4,3-i]isochromen-10-yl)oxy)methyl) benzoic acid] | 7.18 | 5.27 | –
C[C@H]1[C@@H](Oc2ccc(C(=O)N[C@H]3CCC(=O)NC3=O)cc2)O[C@@H]2O[C@@]3(C)CC[C@H]4[C@H](C)CC[C@@H]1[C@@]24OO3 [Compound 198, N-((S)-2,6-dioxopiperidin-3-yl)-4-(((3R,5aS,6R,8aS, 9R,10S,12R, 12aR)-3,6,9-trimethyldeca-hydro-12H-3,12-epoxy[1,2]dioxepino[4,3-i]isochromen-10-yl)oxy)benzamide] | 7.32 | 5.40 | –
CO[C@]1(CO[C@H]2O[C@@H]3O[C@@]4(C)CC[C@H]5[C@H](C)CC[C@@H]([C@H]2C)[C@@]35OO4)CC[C@@H](C(=O)O)CC1 [Compound 199, (1S,4r)-4-methoxy-4-((((3R,5aS,6R,8aS, 9R,10S,12R, 12aR)-3,6,9-trimethyldeca-hydro-12H-3,12-epoxy[1,2]dioxepino[4,3-i]isochromen-10-yl)oxy)methyl) cyclohexane-1-carboxylic acid] | 5.19 | < 4.70 | –
C[C@H]1[C@@H](OC[C@]2(F)CC[C@@H](C(=O)O)CC2)O[C@@H]2O[C@@]3(C)CC[C@H]4[C@H](C)CC[C@@H]1[C@@]24OO3 [Compound 200, (1R,4s)-4-fluoro-4-((((3R,5aS,6R,8aS, 9R,10S,12R, 12aR)-3,6,9-trimethyldeca-hydro-12H-3,12-epoxy[1,2]dioxepino[4,3-i]isochromen-10-yl)oxy)methyl) cyclohexane-1-carboxylic acid] | 5.35 | 4.81 | –
C[C@H]1[C@@H](O[C@H]2C[C@@H](C(=O)N[C@H]3CC[C@@H](C(=O)O)C3)C2)O[C@@H]2O[C@@]3(C)CC[C@H]4[C@H](C)CC[C@@H]1[C@@]24OO3 [Compound 201, (1R,3S)-3-((1R,3R)-3-(((3R,5aS,6R,8aS, 9R,10S,12R, 12aR)-3,6,9-trimethyldeca-hydro-12H-3,12-epoxy[1,2]dioxepino[4,3-i]isochromen-10-yl)oxy)cyclo-butane-1-carboxamido) cyclopentane-1-carboxylic acid] | 5.17 | – | < 4.70
C[C@H]1[C@@H](OCC2CCN(C(=O)C(=O)O)CC2)O[C@@H]2O[C@@]3(C)CC[C@H]4[C@H](C)CC[C@@H]1[C@@]24OO3 [Compound 203, 2-oxo-2-(4-((((3R,5aS,6R,8aS, 9R,10S,12R, 12aR)-3,6,9-trimethyldeca-hydro-12H-3,12-epoxy[1,2]dioxepino[4,3-i]isochromen-10-yl)oxy)methyl)piperidin-1-yl)acetic acid] | 4.76 | < 4.70 | –
C[C@H]1[C@@H](Oc2ccc(C(=O)N[C@@H](CC3CCC3)C(=O)O)cc2)O[C@@H]2O[C@@]3(C)CC[C@H]4[C@H](C)CC[C@@H]1[C@@]24OO3 [Compound 205, (S)-3-cyclobutyl-2-(4-(((3R,5aS,6R,8aS, 9R,10S,12R, 12aR)-3,6,9-trimethyldeca-hydro-12H-3,12-epoxy[1,2]dioxepino[4,3-i]isochromen-10-yl)oxy)benzamido) propanoic acid] | 7.45 | 6.96 | –
C[C@H]1[C@@H](OC(C)(C)[C@H]2C[C@@H](C(=O)O)C2)O[C@@H]2O[C@@]3(C)CC[C@H]4[C@H](C)CC[C@@H]1[C@@]24OO3 [Compound 206, (1R,3s)-3-(2-(((3R,5aS,6R,8aS, 9R,10S,12R, 12aR)-3,6,9-trimethyldeca-hydro-12H-3,12-epoxy[1,2]dioxepino[4,3-i]isochromen-10-yl)oxy)propan-2-yl)cyclobutane-1-carboxylic acid] | 5.42 | < 4.70 | –
C[C@H]1[C@@H](Oc2ccc(C(=O)N3[C@H](C(=O)O)C[C@@H]4CCC[C@@H]43)cc2)O[C@@H]2O[C@@]3(C)CC[C@H]4[C@H](C)CC[C@@H]1[C@@]24OO3 [Compound 207, (2S,3aS,6aS)-1-(4-(((3R,5aS,6R,8aS, 9R,10S,12R, 12aR)-3,6,9-trimethyldeca-hydro-12H-3,12-epoxy[1,2]dioxepino[4,3-i]isochromen-10-yl)oxy)benzoyl) octahydrocyclo penta[b]pyrrole-2-carboxylic acid] | 6.82 | 6.17 | –
C[C@H]1[C@@H](Oc2ccc3[nH]c(C(=O)O)cc3c2)O[C@@H]2O[C@@]3(C)CC[C@H]4[C@H](C)CC[C@@H]1[C@@]24OO3 [Compound 208, 5-(((3R,5aS,6R,8aS, 9R,10S,12R, 12aR)-3,6,9-trimethyldeca-hydro-12H-3,12-epoxy[1,2]dioxepino[4,3-i]isochromen-10-yl)oxy)-1H-indole-2-carboxylic acid] | 7.16 | 6.43 | –
C[C@H]1[C@@H](OCC2CCC(C(=O)O)O2)O[C@@H]2O[C@@]3(C)CC[C@H]4[C@H](C)CC[C@@H]1[C@@]24OO3 (stereo partly drawn) [Compound 209, 5-((((3R,5aS,6R,8aS, 9R,10S,12R, 12aR)-3,6,9-trimethyldeca-hydro-12H-3,12-epoxy[1,2]dioxepino[4,3-i]isochromen-10-yl)oxy)methyl) tetrahydrofuran-2-carboxylic acid] | 4.80 | < 4.70 | –
C[C@H]1[C@@H](OC[C@@]2(F)CCC(C(=O)O)C2)O[C@@H]2O[C@@]3(C)CC[C@H]4[C@H](C)CC[C@@H]1[C@@]24OO3 (stereo partly drawn) [Compound 210, (3R)-3-fluoro-3-((((3R,5aS,6R,8aS, 9R,10S,12R, 12aR)-3,6,9-trimethyldeca-hydro-12H-3,12-epoxy[1,2]dioxepino[4,3-i]isochromen-10-yl)oxy)methyl) cyclopentane-1-carboxylic acid] | 5.60 | 5.12 | –
